According to the supplement of paper PMC13380429:

What was measured:
Conditions in all cases: 72 h
HepG2 [1] = test: cell viability relative to DMSO; higher = less toxic
Vero E6 [2] = test: as above
Caco-2 [3] = test: as above
Calu-3 [4] = test: as above
U2OS [5] = test: as above
HepG2 [6] = test: relative viability EC50 (midpoint between 100% and the lowest measured viability); higher = less toxic
Vero E6 [7] = test: as above
Caco-2 [8] = test: as above
Calu-3 [9] = test: as above
U2OS [10] = test: as above
HepG2 [11] = test: drug sensitivity score (DSS) for viability; higher = more toxic; extreme values may be limits of the assay
Vero E6 [12] = test: as above
Caco-2 [13] = test: as above
Calu-3 [14] = test: as above
U2OS [15] = test: as above

SMILES | cell viability (HepG2 [1]; 1 nM) [%] | cell viability (HepG2 [1]; 10 nM) [%] | cell viability (HepG2 [1]; 100 nM) [%] | cell viability (HepG2 [1]; 1000 nM) [%] | cell viability (HepG2 [1]; 10000 nM) [%] | cell viability (Vero E6 [2]; 1 nM) [%] | cell viability (Vero E6 [2]; 10 nM) [%] | cell viability (Vero E6 [2]; 100 nM) [%] | cell viability (Vero E6 [2]; 1000 nM) [%] | cell viability (Vero E6 [2]; 10000 nM) [%] | cell viability (Caco-2 [3]; 1 nM) [%] | cell viability (Caco-2 [3]; 10 nM) [%] | cell viability (Caco-2 [3]; 100 nM) [%] | cell viability (Caco-2 [3]; 1000 nM) [%] | cell viability (Caco-2 [3]; 10000 nM) [%] | cell viability (Calu-3 [4]; 1 nM) [%] | cell viability (Calu-3 [4]; 10 nM) [%] | cell viability (Calu-3 [4]; 100 nM) [%] | cell viability (Calu-3 [4]; 1000 nM) [%] | cell viability (Calu-3 [4]; 10000 nM) [%] | cell viability (U2OS [5]; 1 nM) [%] | cell viability (U2OS [5]; 10 nM) [%] | cell viability (U2OS [5]; 100 nM) [%] | cell viability (U2OS [5]; 1000 nM) [%] | cell viability (U2OS [5]; 10000 nM) [%] | relative viability EC50 (HepG2 [6]) [µM] | relative viability EC50 (Vero E6 [7]) [µM] | relative viability EC50 (Caco-2 [8]) [µM] | relative viability EC50 (Calu-3 [9]) [µM] | relative viability EC50 (U2OS [10]) [µM] | drug sensitivity score (HepG2 [11]) | drug sensitivity score (Vero E6 [12]) | drug sensitivity score (Caco-2 [13]) | drug sensitivity score (Calu-3 [14]) | drug sensitivity score (U2OS [15])
O=C(O)CCNC(=O)c1ccccc1 [betamipron] | 94.8 | 111 | 95.9 | 114 | 105 | 94.6 | 96.4 | 95.6 | 92.2 | 96.2 | 90.2 | 95.6 | 99.7 | 100 | 103 | 108 | 90.6 | 113 | 104 | 116 | 102 | 98 | 101 | 92.5 | 99.4 | > 10 | > 10 | > 10 | > 10 | > 10 | 0 | 0 | 0 | 0 | 0
O=C(O)CCCC[C@@H]1SC[C@@H]2NC(=O)N[C@@H]21 [biotin] | 111 | 101 | 108 | 97.4 | 104 | 106 | 66.8 | 105 | 59.3 | 106 | 95.8 | 96.3 | 101 | 95.1 | 89.3 | 93.8 | 105 | 98 | 102 | 97.6 | 99.2 | 101 | 97.7 | 101 | 97.8 | > 10 | > 10 | > 10 | > 10 | > 10 | 0 | 0 | 0.1 | 0 | 0
C[C@H](Oc1ccc(S(C)(=O)=O)cc1C(=O)N1CCN(c2ncc(C(F)(F)F)cc2F)CC1)C(F)(F)F [bitopertin] | 94.7 | 95.1 | 96.2 | 104 | 98.4 | 103 | 95.6 | 96.6 | 100 | 97.5 | 100 | 98.6 | 92.5 | 94.2 | 91.1 | 97.1 | 99 | 95.8 | 97.8 | 106 | 98.9 | 100 | 101 | 95.3 | 101 | > 10 | > 10 | > 10 | > 10 | > 10 | 0 | 0 | 0 | 0 | 0
Oc1c(Br)cc(Br)c2cccnc12 [broxyquinoline] | 84.2 | 108 | 110 | 100 | 87.6 | 102 | 94.1 | 102 | 110 | 99 | 89.4 | 92.5 | 93.2 | 98.9 | 112 | 108 | 82.2 | 90.7 | 97.6 | 99 | 96 | 98.7 | 101 | 98.2 | 94.6 | > 10 | > 10 | > 10 | > 10 | > 10 | 0 | 0 | 0 | 0 | 0
CCCCOc1ccc(CC(=O)NO)cc1 [bufexamac] | 95 | 94.6 | 87.5 | 99.9 | 98.2 | 81.9 | 103 | 89.2 | 96.1 | 85.1 | 91.6 | 89.5 | 96.7 | 90.6 | 92.8 | 95.8 | 91.2 | 104 | 98.2 | 99.3 | 100 | 97.8 | 98.1 | 96 | 99 | > 10 | > 10 | > 10 | > 10 | > 10 | 0 | 0.1 | 0 | 0 | 0
CCCCc1ccc(C(N)=O)nc1 [bupicomide] | 93.8 | 103 | 92.6 | 116 | 114 | 96.6 | 99.9 | 96 | 100 | 107 | 94.6 | 81.3 | 94 | 90.8 | 88 | 97.9 | 84.9 | 103 | 84.7 | 99.3 | 99.9 | 94.5 | 103 | 93.6 | 102 | > 10 | > 10 | > 10 | > 10 | > 10 | 0 | 0 | 0 | 0 | 0
